Test results reported in US5254728A, “Complexes containing S(+)-phenyl alkanoic acids and α-hydroxyalkanoic” (priority 1990, dated 1993).

What was measured:
[1] = pH 9.5; cited from earlier work
[2] = in vivo

Row | tmax [2] [min] | Compound | stability [1]
1 |  | CC(O)C(=O)O (centres unmarked) [lactic acid] | not being stable
2 | 20 | S(+)-ibuprofen-L-(+)-lactic acid complex | 
